These results are taken from PubChem BioAssay (NCI).

Values joined by “and” are separate entries in the source; they are usually repeats but may differ in a detail not shown here. Identical values can stand only once.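 Values below derive from 48-hour exposures of cells grown in 96-well plates, with endpoints linearly interpolated between the two concentrations bracketing the appropriate inhibition level. The concentration for 50% growth inhibition is given as GI50. The concentration for full growth arrest is given as TGI.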

Test systems include K-562 leukemia; NCI-H522 lung; RXF 393 renal; IGROV1 ovarian; MCF7 breast; MDA-N; UACC-257 melanoma; BT-549 breast; HCT-116 colon; MDA-MB-231 breast.
Common to all, as to assay: inhibition of tumour cell growth, NCI panel, 48 h

For `CC(=O)OC/C=C/Cn1nc(Br)c(=O)[nH]c1=O`, the TGI with K-562 leukemia, in the test with NCI-H522 lung, with RXF 393 renal, in the test with IGROV1 ovarian, with MCF7 breast and in the test on MDA-N was over 100 µM throughout. Besides, the TGI with UACC-257 melanoma, in the test with BT-549 breast, in the test on HCT-116 colon and in the test with MDA-MB-231 breast was over 100 µM in each case.
As to `CC(C)=C[C@@H]1C[C@H](C)[C@H]2CC[C@H](C)[C@H]3C(=O)C(O)=C(C)C(=O)[C@]123`, the TGI in the test on K-562 leukemia, in the test with NCI-H522 lung, with IGROV1 ovarian, in the test on MCF7 breast, with MDA-N and with UACC-257 melanoma was over 100 µM throughout. For the same molecule, the TGI in the test on BT-549 breast, in the test on HCT-116 colon and in the test with MDA-MB-231 breast was over 100 µM in each case.
For the molecule `CC(C)(C)OC(=O)NCCCCC1NC(=O)[C@@H]2Cc3c([nH]c4ccccc34)C(c3ccccc3)N2C1=O` (some centres undefined), the TGI in the test with K-562 leukemia was over 100 µM; in the test on NCI-H522 lung, over 100 µM; in the test on RXF 393 renal it was 42.2 µM; in the test on IGROV1 ovarian, over 100 µM; with MCF7 breast, over 100 µM; with MDA-N, over 100 µM. Also, the TGI was over 100 µM in the test on UACC-257 melanoma, 68.4 µM in the test with BT-549 breast, over 100 µM with HCT-116 colon and 94.6 µM in the test on MDA-MB-231 breast.
Turning to `Nc1c(/C=C/c2cc3cc(C4=NCCN4)ccc3o2)[nH]c2cc(C3=NCCN3)ccc12`, the TGI in the test with K-562 leukemia, in the test with NCI-H522 lung, with RXF 393 renal, in the test on IGROV1 ovarian, in the test with MCF7 breast and in the test with MDA-N was over 100 µM each time. Moreover, the TGI with UACC-257 melanoma, with BT-549 breast, in the test with HCT-116 colon and in the test with MDA-MB-231 breast was over 100 µM in each case.
`CO[C@@H](c1ccccc1)[C@H](O)[C@@](O)(c1ccccc1)P(=O)(OC)OC`: the TGI with K-562 leukemia, with NCI-H522 lung, with RXF 393 renal, in the test on IGROV1 ovarian, in the test with MCF7 breast and in the test on MDA-N was over 100 µM in each case. For the same molecule, the TGI in the test on UACC-257 melanoma, in the test on BT-549 breast, in the test with HCT-116 colon and with MDA-MB-231 breast was over 100 µM in each case.
As for `CO/C(N)=C(\C#N)N=Cc1cccs1`, the TGI was over 100 µM in the test with K-562 leukemia; 79.6 µM in the test on NCI-H522 lung; over 100 µM in the test on RXF 393 renal; over 100 µM in the test on IGROV1 ovarian; over 100 µM with MCF7 breast; 90.1 µM with MDA-N. Also, the TGI in the test with UACC-257 melanoma, with BT-549 breast, with HCT-116 colon and in the test with MDA-MB-231 breast was over 100 µM throughout.
Consider `CC(=O)Oc1c(OC(C)C)cc(=O)n2ccsc12`, for which the TGI in the test with K-562 leukemia, in the test on NCI-H522 lung, with RXF 393 renal, in the test on IGROV1 ovarian, in the test on MCF7 breast and with MDA-N was over 100 µM in each case. Further, the TGI in the test with UACC-257 melanoma, in the test with BT-549 breast, in the test with HCT-116 colon and in the test on MDA-MB-231 breast was over 100 µM throughout.
Turning to `CCOC(=O)c1ccc(-c2cccs2)[nH]1`, the TGI in the test on K-562 leukemia, with NCI-H522 lung, in the test on RXF 393 renal, with IGROV1 ovarian, in the test on MCF7 breast and in the test with MDA-N was over 100 µM each time. For the same molecule, the TGI in the test on UACC-257 melanoma, with BT-549 breast, in the test on HCT-116 colon and in the test with MDA-MB-231 breast was over 100 µM each time.
In the case of `CN(C)c1ccc(/C=C2\CCCCCC2=O)cc1`, the TGI in the test with K-562 leukemia, with RXF 393 renal, in the test with IGROV1 ovarian, in the test on MCF7 breast, in the test on MDA-N and with UACC-257 melanoma was over 100 µM in each case. Moreover, the TGI with BT-549 breast, in the test on HCT-116 colon and in the test with MDA-MB-231 breast was over 100 µM throughout.
As for `CCCCSC1=N/C(=C\c2ccccc2O)C(Cl)=N1`, the TGI in the test with NCI-H522 lung, with RXF 393 renal, in the test with IGROV1 ovarian, in the test with MCF7 breast, with MDA-N and in the test on UACC-257 melanoma was over 100 µM each time. The TGI in the test on BT-549 breast, with HCT-116 colon and in the test on MDA-MB-231 breast was over 100 µM each time.
In the case of `Nc1nc(N)c2ncn(Cc3ccccc3)c2n1`, the TGI in the test with NCI-H522 lung, with RXF 393 renal, with IGROV1 ovarian, in the test with MCF7 breast, in the test on MDA-N and with UACC-257 melanoma was over 100 µM throughout. Moreover, the TGI with BT-549 breast, with HCT-116 colon and in the test on MDA-MB-231 breast was over 100 µM in each case.
Take `COc1ccc2c(C=O)c3n(c(=O)c2c1OC)CCc1cc2c(cc1-3)OCO2`: the TGI in the test on NCI-H522 lung is over 100 µM; with RXF 393 renal, 11.3 µM; in the test on IGROV1 ovarian, over 100 µM; in the test with MCF7 breast, over 100 µM; in the test on MDA-N it was over 100 µM; in the test on UACC-257 melanoma, over 100 µM. In addition, the TGI with BT-549 breast, in the test on HCT-116 colon and with MDA-MB-231 breast was over 100 µM in each case.
In the case of `Cc1ccc(C(=O)C2CC3(CCC2(O)c2ccc(C)cc2)CC(=O)Nc2ccccc2C3=O)cc1` (centres undefined), the TGI in the test on RXF 393 renal, in the test with IGROV1 ovarian, in the test on MCF7 breast, in the test on MDA-N, in the test with UACC-257 melanoma and in the test with BT-549 breast was over 100 µM throughout. Further, the TGI in the test with HCT-116 colon and in the test on MDA-MB-231 breast was over 100 µM in each case.
As for `CC(=O)CC(=O)N1CCOC1=O`, the TGI in the test on K-562 leukemia, in the test with RXF 393 renal, in the test on IGROV1 ovarian, in the test on MCF7 breast, with MDA-N and in the test with UACC-257 melanoma was over 10 µM throughout. For the same molecule, the TGI with BT-549 breast, in the test with HCT-116 colon and in the test with MDA-MB-231 breast was over 10 µM throughout.
As for `CC1SCCc2nc3ccccc3n21` (centres undefined), the TGI in the test with K-562 leukemia, in the test on RXF 393 renal, in the test with IGROV1 ovarian, with MCF7 breast, in the test on MDA-N and with UACC-257 melanoma was over 100 µM in each case. Moreover, the TGI in the test on BT-549 breast, in the test on HCT-116 colon and with MDA-MB-231 breast was over 100 µM each time.
`N#Cc1c(N)n(-c2nc3ccccc3s2)c(=O)c2cc([N+](=O)[O-])ccc12`: the TGI was 38.6 µM in the test with K-562 leukemia; 25.6 µM in the test with NCI-H522 lung; 41.9 µM with RXF 393 renal; 41.3 µM in the test on MCF7 breast; over 82.7 µM with MDA-N; 69.3 µM with UACC-257 melanoma. Besides, the TGI is over 62.7 µM in the test on BT-549 breast, over 41.9 µM with HCT-116 colon and 50.5 µM in the test with MDA-MB-231 breast.
As for `Nc1nc2c(c(-c3ccc(F)cc3)n1)COC/C2=C\c1ccc(F)cc1`, the TGI with K-562 leukemia is over 100 µM; with NCI-H522 lung, 22.7 µM; with RXF 393 renal, over 100 µM; with IGROV1 ovarian, over 100 µM; in the test with MCF7 breast, over 100 µM; in the test with MDA-N, over 100 µM. Further, the TGI in the test on UACC-257 melanoma, in the test with BT-549 breast and in the test on MDA-MB-231 breast was over 100 µM in each case.
Consider `CCCSC1=N/C(=C\c2ccco2)C(=O)N1`, for which the TGI in the test with NCI-H522 lung, with RXF 393 renal, in the test with IGROV1 ovarian, in the test with MCF7 breast, with MDA-N and in the test with UACC-257 melanoma was over 100 µM throughout. In addition, the TGI with BT-549 breast, in the test with HCT-116 colon and with MDA-MB-231 breast was over 100 µM throughout.
Take `CCOC(=O)C1(NC(=O)OC(C)(C)C)CCc2[nH]oc(=O)c2C1` (centres undefined): the TGI in the test with K-562 leukemia, in the test with NCI-H522 lung, in the test with IGROV1 ovarian, in the test on MCF7 breast, with MDA-N and in the test with UACC-257 melanoma was over 100 µM each time. Further, the TGI with BT-549 breast, in the test with HCT-116 colon and in the test with MDA-MB-231 breast was over 100 µM in each case.
Turning to `CCc1nc2cc(F)ccc2[nH]c1=O`, the TGI in the test on K-562 leukemia, in the test on RXF 393 renal, with MCF7 breast, with MDA-N, with UACC-257 melanoma and with BT-549 breast was over 100 µM each time. Moreover, the TGI in the test with HCT-116 colon and with MDA-MB-231 breast was over 100 µM throughout.
On to `COC1=C(C)C(=O)C2=C(C1=O)C1C3CC4=C(C(=O)C(OC)=C(C)C4=O)C(CNC(=O)C(C)=O)N3C(C#N)C(C2)N1C` (centres undefined), for which the TGI with RXF 393 renal was 0.0161 µM; with IGROV1 ovarian it was 0.199 µM and 0.0948 µM; in the test on MCF7 breast, 0.359 µM and 0.379 µM; in the test on MDA-N it was 0.026 µM; in the test with BT-549 breast, 0.0017 µM; with MDA-MB-231 breast, 0.0127 µM and 0.0154 µM. For the same molecule, the GI50 in the test on MCF7 breast was 74.2 pM; in the test on MDA-N, 0.00351 µM; in the test with UACC-257 melanoma, 5.76 pM.
